Test results: US20240182420A1, “MICROBIOCIDAL ISONICOTINIC AMIDE DERIVATIVES” (SYNGENTA CROP PROTECTION AG, priority 2021, published 2024)

What was measured:
[1] = system: Botryotinia fuckeliana syn. Botrytis cinerea; test: Botryotinia fuckeliana syn. Botrytis cinerea (gray mould), liquid culture growth inhibition; assay type: cell-based; conditions: PDB nutrient broth, 24° C., 72 hrs, photometric, vs untreated control
Description: (§1) Conidia of the fungus from cryogenic storage were directly mixed into nutrient broth (PDB potato dextrose broth). A DMSO solution of the test compounds was placed into a microtiter plate (96-well format) and the nutrient broth containing the fungal spores was added to it. The test plates were incubated at 24° C. and the inhibition of growth was determined photometrically after 72 hrs.

[2] = system: Botryotinia fuckeliana syn. Botrytis cinerea; test: Botryotinia fuckeliana syn. Botrytis cinerea (grey mold on tomato), tomato plants; assay type: in vivo; conditions: tomato plants cv. Roter Gnom, inoculated two days after application, leaf area covered by disease 5-6 days after application
Description: 4-week old tomato plants cv. Roter Gnom are treated sprayed in a spray chamber with the formulated test compound diluted in water. The test plants are inoculated by spraying them with a spore suspension two days after application. The inoculated test plants are incubated at 20° C. and 95% rh in a greenhouse and the percentage leaf area covered by disease is assessed when an appropriate level of disease appears on untreated check plants (5-6 days after application).

[3] = system: Glomerella lagenarium syn Colletotrichum lagenarium; test: Glomerella lagenarium syn. Colletotrichum lagenarium (anthracnose), liquid culture growth inhibition; assay type: cell-based; conditions: Colletotrichum orbiculare, PDB nutrient broth, 24° C., 72 hrs, 620 nm, vs untreated control
Description: as §1, with “hrs at 620 nm.” for “hrs.”

[4] = system: Sclerotinia sclerotiorum; test: Sclerotinia sclerotiorum (cottony rot, white mold), liquid culture growth inhibition; assay type: cell-based; conditions: PDB nutrient broth, 24° C., 72 hrs, 620 nm, vs untreated control
Description: as §1, with “Mycelial fragments” for “Conidia”, “fungus prepared” for “fungus”, “a fresh liquid culture” for “cryogenic storage”, “hrs at 620 nm.” for “hrs.”

[5] = system: Phaeosphaeria nodorum syn. Septoria nodorum; test: Phaeosphaeria nodorum syn. Septoria nodorum (glume blotch of wheat), wheat leaf segments, preventive; assay type: in vivo; conditions: Parastagonospora nodorum, foliar, 96 h, assessed 4 dpi, vs untreated control
Description: Wheat leaf segments are placed on agar in multiwell plates (24-well format) and sprayed with test solutions. After drying, the leaf disks are inoculated with a spore suspension of the fungus. After appropriate incubation the activity of a compound is assessed 4 dpi (days after inoculation) as preventive fungicidal activity.
The following compounds from Table T1 gave at least 80% control of Phaeosphaeria nodorum at 200 ppm when compared to untreated control under the same conditions, which sowed extensive disease development: • 1.1, 1.3, 1.7, 1.14, 1.39, 1.41, 1.86, 1.87, 1.92, 1.94, 1.95.

[6] = system: Monographella nivalis syn. Microdochium nivale, Fusarium nivale; test: Monographella nivalis syn. Microdochium nivale (snow mould, foot rot), liquid culture growth inhibition; assay type: cell-based; conditions: PDB nutrient broth, 24° C., 72 hrs, 620 nm, vs untreated control
Description: as §1, with “hrs at 620 nm.” for “hrs.”

[7] = system: Alternaria solani; test: Alternaria solani (early blight of tomato), tomato leaf disks, preventive; assay type: in vivo; conditions: foliar, 96 h, assessed 4 dpi, vs untreated control
Description: Tomato leaf disks are placed on water agar in multiwell plates (24-well format) and sprayed with test solutions. After drying, the leaf disks are inoculated with a spore suspension of the fungus. After appropriate incubation the activity of a compound is assessed 4 dpi (days post inoculation) as preventive fungicidal activity.

Structure (SMILES) | inhibition of growth at 20 ppm [1] [%] | pest or weed control at 200 ppm [2] [%] | inhibition of growth at 20 ppm [3] [%] | inhibition of growth at 20 ppm [4] [%] | pest or weed control at 200 ppm [5] [%] | inhibition of growth at 20 ppm [6] [%] | pest or weed control at 200 ppm [7] [%]
O=C(NCC(F)c1ccc(Cl)cc1Cl)c1c(Br)cncc1Oc1cccc(C2CC2)c1 (stereo not shown) [Compound 1.8, 3-bromo-5-(3-cyclopropyl-phenoxy)-N-[2-(2,4-dichlorophenyl)-2-fluoro-ethyl]pyridine-4-carboxamide] | ≥ 80 | ≥ 50 | ≥ 80 | ≥ 80 |  |  | 
C#Cc1cc(C(=O)NCC(F)c2ccc(Cl)cc2Cl)c(Oc2cccc(C3CC3)c2)cn1 (stereo not shown) [Compound 1.86, 5-(3-cyclopropyl-phenoxy)-N-[2-(2,4-dichlorophenyl)-2-fluoro-ethyl]-2-ethynyl-pyridine-4-carboxamide] | ≥ 80 |  | ≥ 80 |  | ≥ 80 | ≥ 80 | 
Cc1cncc(Oc2cccc(C3CC3)c2)c1C(=O)NCC(F)c1ccc(Cl)cc1Cl (stereo not shown) [Compound 1.7, 3-(3-cyclopropyl-phenoxy)-N-[2-(2,4-dichlorophenyl)-2-fluoro-ethyl]-5-methyl-pyridine-4-carboxamide] | ≥ 80 | ≥ 50 | ≥ 80 | ≥ 80 | ≥ 80 |  | ≥ 80
Cc1cccc(Oc2cnc(Cl)cc2C(=O)NCCc2cccc(Cl)c2)c1 [Compound 1.46, 2-chloro-N-[2-(3-chlorophenyl)ethyl]-5-(3-methylphenoxy) pyridine-4-carboxamide] |  |  | ≥ 80 |  |  | ≥ 80 | 
N#Cc1cc(C(=O)NCC(F)c2ccc(Cl)cc2Cl)c(Oc2cccc(C3CC3)c2)cn1 (stereo not shown) [Compound 1.20, 2-cyano-5-(3-cyclopropyl-phenoxy)-N-[2-(2,4-dichlorophenyl) 2-fluoro-ethyl]pyridine-4-carboxamide] | ≥ 80 | ≥ 50 | ≥ 80 | ≥ 80 |  |  | ≥ 80
O=C(NCC(F)c1ccc(Cl)cc1Cl)c1cc(Br)ncc1Oc1cccc(C2CC2)c1 (stereo not shown) [Compound 1.5, 2-bromo-5-(3-cyclopropyl-phenoxy)-N-[2-(2,4-dichlorophenyl)-2-fluoro-ethyl]pyridine-4-carboxamide] | ≥ 80 | ≥ 50 | ≥ 80 | ≥ 80 |  |  | 
C#CC(C)(C)Oc1cncc(Oc2cccc(C3CC3)c2)c1C(=O)NCC(F)c1ccc(Cl)cc1Cl (stereo not shown) [Compound 1.92, 3-(3-cyclopropyl-phenoxy)-N-[2-(2,4-dichlorophenyl)-2-fluoro-ethyl]-5-(1,1-dimethylprop-2-ynoxy)pyridine-4-carboxamide] | ≥ 80 |  | ≥ 80 | ≥ 80 | ≥ 80 | ≥ 80 | 
O=C(NCC(F)c1ccc(Cl)cc1Cl)c1cc(Cl)ncc1Oc1cccc(C2CC2)c1F (stereo not shown) [Compound 1.70, 2-chloro-5-(3-cyclopropyl-2-fluoro-phenoxy)-N-[2-(2,4-dichlorophenyl)-2-fluoro-ethyl]pyridine-4-carboxamide] | ≥ 80 | ≥ 50 |  | ≥ 80 |  | ≥ 80 | 
Cc1cc(C(=O)NCCc2ccc(Cl)cc2Cl)c(Oc2cccc(C3CC3)c2)cn1 [Compound 1.13, 5-(3-cyclopropyl-phenoxy)-N-[2-(2,4-dichlorophenyl)ethyl]-2-methyl-pyridine-4-carboxamide] | ≥ 80 | ≥ 50 | ≥ 80 | ≥ 80 |  | ≥ 80 | 
CCc1cncc(Oc2cccc(C3CC3)c2)c1C(=O)NCC(F)c1ccc(Cl)cc1Cl (stereo not shown) [Compound 1.79, 3-(3-cyclopropyl-phenoxy)-N-[2-(2,4-dichlorophenyl)-2-fluoro-ethyl]-5-ethyl-pyridine-4-carboxamide] | ≥ 80 | ≥ 50 | ≥ 80 | ≥ 80 |  | ≥ 80 | 
O=C(NCC(F)c1ccc(Cl)cc1Cl)c1c(O)cncc1Oc1cccc(C2CC2)c1 (stereo not shown) [Compound 1.96, 3-(3-cyclopropyl-phenoxy)-N-[2-(2,4-dichlorophenyl)-2-fluoro-ethyl]-5-hydroxy-pyridine-4-carboxamide] | ≥ 80 |  | ≥ 80 | ≥ 80 |  | ≥ 80 | 
N#Cc1ccc(Oc2cnc(Cl)cc2C(=O)NCC(F)c2ccc(Cl)cc2Cl)cc1 (stereo not shown) [Compound 1.63, 2-chloro-5-(4-cyanophenoxy)-N-[2-(2,4-dichlorophenyl)-2-fluoro-ethyl]pyridine-4-carboxamide] |  |  | ≥ 80 |  |  | ≥ 80 | 
O=C(NCC1(c2ccc(F)cc2)CCC1)c1cc(Cl)ncc1Oc1cccc(C2CC2)c1 [Compound 1.28, 2-chloro-5-(3-cyclopropyl-phenoxy)-N-[[1-(4-fluorophenyl)cyclobutyl]methyl] pyridine-4-carboxamide] |  |  |  |  |  | ≥ 80 | 
Cc1ccc(C(F)CNC(=O)c2cc(Cl)ncc2Oc2cccc(C3CC3)c2)c(C)c1 (stereo not shown) [Compound 1.78, 2-chloro-5-(3-cyclopropyl-phenoxy)-N-[2-(2,4-dimethylphenyl)-2-fluoro-ethyl]pyridine-4-carboxamide] | ≥ 80 |  | ≥ 80 |  |  | ≥ 80 | 
O=C(NCC(F)c1ccc(Cl)cc1Cl)c1c(Oc2cccc(C3CC3)c2)cncc1Oc1cccc(C2CC2)c1 (stereo not shown) [Compound 1.84, 3,5-bis(3-cyclopropyl-phenoxy)-N-[2-(2,4-dichlorophenyl)-2-fluoro-ethyl]pyridine-4-carboxamide] | ≥ 80 | ≥ 50 | ≥ 80 |  |  | ≥ 80 | 
Cc1cccc(Oc2cnc(C)cc2C(=O)NCCc2ccc(Cl)cc2Cl)c1 [Compound 1.2, N-[2-(2,4-dichlorophenyl)ethyl]-2-methyl-5-(3-methylphenoxy) pyridine-4-carboxamide] | ≥ 80 |  | ≥ 80 | ≥ 80 |  |  | 
Cc1ccc(C(F)CNC(=O)c2cc(C)ncc2Oc2cccc(C3CC3)c2)c(Cl)c1 (stereo not shown) [Compound 1.60, N-[2-(2-chloro-4-methyl-phenyl)-2-fluoro-ethyl]-5-(3-cyclopropyl-phenoxy)-2-methyl-pyridine-4-carboxamide] | ≥ 80 | ≥ 50 | ≥ 80 |  |  | ≥ 80 | 
O=C(NC[C@H](F)c1ccc(Cl)cc1Cl)c1c(Br)cncc1Oc1cccc(C2CC2)c1 [Compound 1.95, 3-bromo-5-(3-cyclopropyl-phenoxy)-N-[(2R)-2-(2,4-dichlorophenyl)-2-fluoro-ethyl]pyridine-4-carboxamide] | ≥ 80 |  | ≥ 80 | ≥ 80 | ≥ 80 | ≥ 80 | ≥ 80
CCc1cc(C(=O)NCC(F)c2ccc(Cl)cc2Cl)c(Oc2cccc(C3CC3)c2)cn1 (stereo not shown) [Compound 1.81, 5-(3-cyclopropyl-phenoxy)-N-[2-(2,4-dichlorophenyl)-2-fluoro-ethyl]-2-ethyl-pyridine-4-carboxamide] | ≥ 80 | ≥ 50 | ≥ 80 | ≥ 80 |  | ≥ 80 | 
COc1cc(C(=O)NCC(F)c2ccc(Cl)cc2Cl)c(Oc2cccc(C3CC3)c2)cn1 (stereo not shown) [Compound 1.98, 5-(3-cyclopropyl-phenoxy)-N-[2-(2,4-dichlorophenyl)-2-fluoro-ethyl]-2-methoxy-pyridine-4-carboxamide] | ≥ 80 |  | ≥ 80 |  |  |  | ≥ 80
